The values that follow come from patent US20040146987A1, “Rapidly degraded reporter fusion proteins” (Promega Corporation, priority 2002, published 2004).

Where two headings read alike, the source gives them in different places. Some results are limits rather than exact numbers.

The test system of assay [1] is S. cerevisiae. The following applies: yeast / S. cerevisiae, cited from earlier work.
Assay [2] has as its system E. coli. Conditions: cited from earlier work.
For assay [3], the system named is COS-7 cells. Kind of assay: cycloheximide treatment of transiently transfected COS-7 cells, luminescence of accumulated luciferase. It counts as cell-based, African green monkey. Conditions: cycloheximide 100 μg/ml. Here is the method: For transfection, cells were grown to confluence in T25 flasks (Falkon, Becton Dickinson, Oxford). Transfection was conducted in 1 ml of serum-free RPMI-1640 that was mixed with 8 μg of plasmid DNA and 20 μl of Lipofectamine™2000 (GIBCO BRL). CHO cells were incubated in the transfection media for 30 minutes, HeLa cells for 1 hour, and COS-7 cells for 5 hours. Following incubation, cells were trypsinized with Trypsin-EDTA (GIBCO BRL) and collected by centrifugation. […]
To determine firefly luciferase activity, cells were lysed by freeze/thawing. Lysate from each well (100 μl) was transferred into corresponding wells of opaque 96 well plates (Falkon, Becton Dickinson, Oxford) containing 100 μl of Bright-Glo™ Luciferase Assay System (Promega) and luminescence intensity was determined using MLX Microtiter Plate Luminometer (Dynex). The activity of Renilla luciferase was measured by mixing 40 μl samples with 100 μl of assay reagent from the Renilla Luciferase Assay System (Promega).
The half-life of the protein encoded by plasmid pUbiq(Y)Luc 19 was determined in mammalian cells and compared to the half-lives of wild-type luciferase as well as fusion proteins comprising firefly luciferase and a mutant form of the C-ODC (Luc-PEST10). […]

The conditions of assay [4]: literature; cited from earlier work.
The test system of assay [5] is protein synthesis. Kind of assay: inhibition of protein synthesis by cycloheximide. Type of assay: cell-based. The following applies: 100 μg/ml. How it is done: The half-life of the protein encoded by plasmid pUbiq(Y)Luc 19 was determined in mammalian cells and compared to the half-lives of wild-type luciferase as well as fusion proteins comprising firefly luciferase and a mutant form of the C-ODC (Luc-PEST10). This was done by evaluating the luminescence emitted by cells that were transiently transfected with either plasmid pUbiq(Y)Luc19 or pwtLuc1 or pLuc-PEST 10, respectively, and then, for different periods of time, were exposed to the protein synthesis inhibitor cycloheximide. […] The estimated half-life of Ubiq(Y)Luc in these cells is about 170-200 minutes, which is far longer than the half-lives reported by Varshavsky (1992) for P-galactosidase containing a tyrosine residue at the N-terminus both in E. coli and S. cerevisiae (2 and 10 minutes, respectively).

The half-life is how long it takes for the measured level to halve. In the case of β-galactosidase, the figures for the half-life in assay [1], in assay [1] (listed as wild-type P-galactosidase) and in assay [2] were 20 h, over 20 h and “more than 10 hours”, respectively.
Consider “wild-type luciferase: wild-type firefly luciferase encoded by plasmid pwtLuc1”, for which the results for the half-life result in assay [3] and in assay [4] were “about 7 hours” and “about 3.68 hours”, respectively.
Regarding `C[C@@H]1C[C@@H]([C@H](O)CC2CC(=O)NC(=O)C2)C(=O)[C@@H](C)C1` [cycloheximide], the “time to complete inhibition of protein synthesis” value in assay [5] was at most 7.5 min.
